# Data: patent publication US5969174A, “Competitive inhibitors of glyoxalase I and method of generating such competitive inhibitors inside tumor cells” (priority 1998, dated 1999)
# How the values were obtained:
# [1] = system: rat adrenal pheochromocytoma PC-12 cells; conditions: literature (26); read-out: IC50, growth of PC-12 cells; cited from earlier work
# [2] = system: L1210 cells; test: Growth inhibition / cytotoxicity, murine leukemia L1210 cells in culture; format: cell-based
# [3] = system: B16 melanotic melanoma cells; test: Growth inhibition, B16 melanotic melanoma cells in culture; format: cell-based, murine
# Experimental: As a consequence, they are the strongest competitive inhibitors of human GlxI yet described, Table 1. […] With both cell lines there was some correlation between the Ki values of the enediol analogs and the IC50 values of the corresponding diethyl esters.
# ^d Sp-bromobenzylglutathione diethyl ester. Cells were incubated for
# 48 h in RPMI 1640/10% fetal calf serum (37° C.) in the absence and
# in the presence of enzyme inhibitor. After the initial addition of
# inhibitor at time zero, fresh inhibitor was added every 12 h in order to
# compensate partially for the loss of inhibitor due to spontaneous
# hydrolytic deethylation in the growth medium.
# [4] = system: splenic lymphocytes; test: Toxicity toward nonproliferating splenic lymphocytes; format: cell-based; conditions: L1210 cells versus splenic lymphocytes
# Text: Conditions: See Table 1. Error bars represent standard deviations for triplicate determinations. Different symbols correspond to experiments carried out on different days.
# This is illustrated for 2(Et)2 and S-p-bromobenzylglutathionediethyl ester by the dose-response curves of FIG. 3. […] Therefore, tumor cells might not be able to detoxify the inhibitors as rapidly as normal cells. In order to determine whether this could be a factor in the present study, the glyoxalase activities in both L1210 cells and splenic lymphocytes were determined. Indeed, while the GlxI activities in the two cell lines are nearly equal, the GlxII activity in L1210 cells is about 10-fold lower than that in splenic lymphocytes. The activities of GlxI and GlxII in L1210 cells were respectively 0.31±0.03 U/mg and 0.02±0.003 U/mg, while the activities in splenic lymphocytes were respectively 0.36±0.03U/mg and 0.20±0.03 U/mg.
# [5] = target: human erythrocyte GlxI; conditions: of the unethylated species with human erythrocyte GlxI (17); read-out: Ki, competitive inhibition constant; cited from earlier work
# [6] = system: HL60 cells; conditions: cited from earlier work
# [7] = system: human tumor cell lines; conditions: literature; cited from earlier work
# [8] = system: GlxII; conditions: cited from earlier work
# [9] = system: HL60 cells; conditions: literature (15); cited from earlier work
smiles,measurement,setting,value
CC(C)OC(=O)CNC(=O)[C@H](CSC(=O)OCC1c2ccccc2-c2ccccc21)NC(=O)CC[C@H](N)C(=O)OC(C)C [S-fluorenylmethoxycarbonyl glutathionediisopropyl ester],IC50,[1],275 µM
"CCOC(=O)CNC(=O)[C@H](CSCc1ccc(Br)cc1)NC(=O)CC[C@H](N)C(=O)OCC [p-BrbzylSG(Et)2, Sp-bromobenzylglutathione diethyl ester, reference compound]","relative potency, L1210",[2]; L1210 cells,as potent as 2(Et)2 and 3(Et)2
same,IC50,"[2]; Mus musculus, L1210, 48 h, RPMI 1640/10% fetal calf serum, 37° C., fresh inhibitor every 12 h, mean ± SD, read-out: IC50, 50% growth inhibition, L1210",9.8 ± 3.2 µM
same,IC50,"[3]; Mus musculus, 48 h, RPMI 1640/10% fetal calf serum, 37° C., fresh inhibitor every 12 h, mean ± SD, read-out: IC50, 50% growth inhibition, B16",15 ± 5 µM
same,"relative potency, B16",[3]; versus 3(Et)2,about half as potent as 3(Et)2
same,toxicity to splenic lymphocytes / selectivity in words,[4]; listed as S-p-Bromobenzylglutathione diethyl ester,selective toxicity
same,toxicity to splenic lymphocytes / selectivity in words,[4]; listed as S-p-bromobenzylglutathione diethyl ester,significant selective toxicity to L1210 cells
same,Ki,[5],0.17 µM
same,IC50 with HL60 cells versus nonproliferating human neutrophils,"[6]; lower with HL60, literature (13)",about 5 -fold
same,toxicity to human tumor cell lines,[7],toxic to a range of different human tumor cell lines in culture
same,substrate for GlxII in words,[8],cannot serve as a substrate for GlxII
N[C@@H](CCC(=O)N[C@@H](CSCc1ccc(Br)cc1)C(=O)NCC(=O)OC1CCCC1)C(=O)OC1CCCC1 [dicyclopentyl ester of S-p-bromobenzylglutathione],"potency relative to the diethyl ester, HL60",[6]; literature (14),twice as potent as the diethyl ester
same,concentration of intracellular methylglyoxal,[9],increased the measured concentration of intracellular methylglyoxal
